From ChEMBL document CHEMBL4219227, “Polyprenylated polycyclic acylphloroglucinol: Angiogenesis inhibitor from Garcinia multiflora” (Bioorg Med Chem Lett, 2018)
Calls of active or inactive are those of the source. The rule behind the calls is not given here.

Key:
Type in all cases: functional
SK-HEP1 = test: Growth inhibition of human SKHEP1 cells after 48 hrs by SRB assay; details: SK-HEP1, 48 h
PC-3 = test: Growth inhibition of human PC3 cells after 48 hrs by SRB assay; details: PC-3, 48 h
Homo sapiens [1] = species on record: Homo sapiens; test: Antiangiogenic activity in human CD34-positive EPC assessed as suppression of cell reorganization at 20 uM after 24 hrs by phase contrast microscopic method
Homo sapiens [2] = species on record: Homo sapiens; test: Antiangiogenic activity in human CD34-positive EPC assessed as suppression of capillary-like structure formation at 20 uM after 24 hrs by phase contrast microscopic method
Homo sapiens [3] = species on record: Homo sapiens; test: Growth inhibition of human CD34-positive EPC at 10 uM after 48 hrs by SRB assay
[4] = Antiangiogenic activity in human CD34-positive EPC assessed as suppression of capillary-like structure formation after 24 hrs by phase contrast microscopic method

Row | Structure (SMILES) | GI50 (SK-HEP1) | GI50 (PC-3) | Activity (Homo sapiens [1]) | Activity (Homo sapiens [2]) | growth inhibition (GI) (Homo sapiens [3]) | IC50 [4]
1 | CC(=O)O[C@H]1C(=O)[C@@]2(C)[C@H]([C@H](OC(=O)c3ccccc3)[C@]3(O)C[C@H](OC(=O)[C@H](O)[C@@H](NC(=O)c4ccccc4)c4ccccc4)C(C)=C1C3(C)C)[C@]1(OC(C)=O)CO[C@@H]1C[C@@H]2O [PACLITAXEL] | 0.011 µM | 0.013 µM |  |  |  | 
2 | C=C(C)[C@@H](CC=C(C)C)C[C@]12C[C@@H](CC=C(C)C)C(C)(C)[C@](CC=C(C)C)(C1=O)C(O)=C(C(=O)c1ccccc1)C2=O | 4.3 µM | 6.6 µM | Active | Active | Active | 14.3 µM
3 | C=C(C)[C@@H](CC=C(C)C)C[C@@]12C[C@@H](CC=C(C)C)C(C)(C)[C@]3(C=CC(C)(C)OC3=C(C(=O)c3ccccc3)C1=O)C2=O [GARCIMULTIFLORONE B] | > 30 µM | 18.2 µM | Active | Active | Active | 15.7 µM
4 | CC(C)=CCC1=C2OC(C)(C)[C@@H](CC=C(C)C)C[C@@]23C[C@@H](CC=C(C)C)C(C)(C)[C@@](C(=O)c2ccccc2)(C1=O)C3=O [GARCIMULTIFLORONE A] | > 30 µM | 24.8 µM | Active | Active | Active | 16.5 µM
